Series [1] deals with P. falciparum stage V gametocytes. Description: Gametocytocidal ATP bioluminescence assay (single point 5 μM and 1 μM, dose-response). It is filed as cell-based, Plasmodium falciparum. Particulars: for Ratio IC50 HepG2/IC50 P. falciparum: IC50 HepG2 divided by IC50 P. falciparum gametocytes.
Protocol: Purified stage IV-V gametocytes were obtained as previously described [10]. Single point ATP bioluminescence assay and dose–response of positive hits was determined in accordance with the previously published protocol [10].
Series [2] deals with luciferase reaction (BacTiter-Glo). Description: Interference assay (inhibition of the BacTiter-Glo luciferase reaction). Further details: concentration or dose not given beside the values. Particulars: ATP interference assay. It counts as biochemical. As to the method: To discard possible false-positive results, we performed an interference assay in parallel. […] […]. The ATP solution was made by dissolving ATP powder (ATP standard from the ATPlite 1 step assay kit, reference 6016731, Perkin Elmer) in culture medium. The positive control used was the Luciferase Inhibitor I Calbiochem (Merck, 119113) at 100 μM.

Series [3] is described as follows: Cytotoxicity in HepG2 cells (intracellular ATP, ATPlite, 48 h). As to conditions: human, HepG2 cells. It is filed as cell-based, human. Background: In ATP-based viability assays light output follows the ATP content of the culture.
A further series relates to HepG2 cells. Described as above. It counts as cell-based, human. Particulars: IC50 HepG2 divided by IC50 P. falciparum gametocytes.
For series [4], the system named is P. falciparum asexual stages. Particulars: TCAMS data, cited from earlier work.
The mark [5] stands for this setting: Plasmodium falciparum, P. falciparum gametocytes, average, read-out: IC50 Pf Gametocytes average, IC50 (µM) average.
Where [6] appears, read: Plasmodium falciparum, sexual stages (gametocytes), dose-response, read-out: IC50 sexual.
Setting [7] is: IC50 per ratio column head, unit inferred, read-out: Cytotoxicity in HepG2.
Setting [8] is: P. falciparum asexual stages, read-out: IC50 (µM) Pf asexual stages.
The mark [9] stands for this setting: asexual stages, read-out: IC50 asexual.
Setting [10] is: sexual stages (gametocytes), dose-response, read-out: IC50 sexual.

Like-named read-outs stand apart in the source and are kept apart here.

These results are taken from PMC4552634, “A New Set of Chemical Starting Points with Plasmodium falciparum Transmission-Blocking Potential for Antimalarial Drug Discovery” (PLoS ONE, 2015).

Regarding `Cc1cc(Nc2ccncc2)n2nc(C)c(-c3ccccc3Cl)c2n1` [TCMDC-124918], the “Ratio IC50 HepG2/IC50 P. falciparum” value (in series [1]; with HepG2 cells) was more than 13 throughout. The IC50 is 1.94 µM in series [1] (setting [5]), 1.94 µM in series [1] (setting [6]), 0.65 µM in series [4] (setting [8]) and 0.654 µM in series [4] (setting [9]). Besides, the “% Control luminiscence” value in series [2] came out at 100%. Further, in series [3] (setting [7]), the IC50 at 48 h is more than 25 µM.

As for `COc1ccc(NC(=O)C2c3ccccc3C(=O)N(CC(C)C)C2c2cccs2)cc1OC` (centres unmarked) [TCMDC-125289], the “Ratio IC50 HepG2/IC50 P. falciparum” value (in series [1]; in the series on HepG2 cells) was more than 58 throughout. Further, the IC50 was 0.43 µM in series [1] (setting [5]), 0.427 µM in series [1] (setting [6]), 0.2 µM in series [4] (setting [8]) and 0.203 µM in series [4] (setting [9]). Moreover, in series [2], the “% Control luminiscence” value came out at 100%. In addition, the IC50 at 48 h in series [3] (setting [7]) is more than 25 µM.

In the case of `CCN(CC)CCCOC(=O)c1ccc2c(c1)-c1ccc(C(=O)OCCCN(CC)CC)c3cccc-2c13` [TCMDC-125491], the “Ratio IC50 HepG2/IC50 P. falciparum” value (in series [1]; in the series with HepG2 cells) was 140 in each case. The figures for the IC50 in series [1] (setting [5]), in series [1] (setting [10]) and in series [4] (setting [9]) were 0.14 µM, 0.143 µM and 0.933 µM, respectively. Moreover, the “% Control luminiscence” value in series [2] was 96%. Further, the IC50 at 48 h in series [3] (setting [7]) was 20 µM.

As for `Fc1ccc(NC(=S)NN=Cc2ccccn2)cc1` [TCMDC-125521], the “Ratio IC50 HepG2/IC50 P. falciparum” value (in series [1]; with HepG2 cells) was 195 each time. Moreover, the IC50 in series [1] (setting [5]) was 0.12 µM; in series [4] (setting [8]), 0.77 µM; in series [4] (setting [9]) it was 0.775 µM. Besides, the “% Control luminiscence” value in series [2] is given as 100%. Besides, the IC50 at 48 h was 23 µM in series [3] (HepG2, 48 h exposure, intracellular ATP, read-out: IC50 (μM) Cytotoxicity HepG2) and 23.4 µM in series [3] (setting [7]).

As to `c1ccc2sc(Sc3ncnc4sccc34)nc2c1` [TCMDC-125539], the “Ratio IC50 HepG2/IC50 P. falciparum” value (in series [1]; with HepG2 cells) was more than 50 in each case. The IC50 in series [1] (setting [5]) was 0.5 µM; in series [1] (setting [6]) it was 0.497 µM; in series [4] (setting [8]), 0.73 µM; in series [4] (setting [9]), 0.734 µM. The “% Control luminiscence” value in series [2] stood at 100%. The IC50 at 48 h in series [3] (setting [7]) was more than 25 µM.

On to `COc1cccc(C(=O)NC(C=Cc2ccccc2)c2cc(Cl)c3cccnc3c2O)c1` (centres unmarked) [TCMDC-125550], for which the “Ratio IC50 HepG2/IC50 P. falciparum” value (in series [1]; in the series on HepG2 cells) was more than 43 throughout. For the same compound, the IC50 in series [1] (setting [5]) is 0.59 µM; in series [1] (setting [10]), 0.585 µM; in series [4] (setting [9]), 0.859 µM. Besides, the “% Control luminiscence” value in series [2] was determined as 100%. The IC50 at 48 h in series [3] (setting [7]) was more than 25 µM.

For the compound `O=[N+]([O-])c1ccc(C=NNc2nc(Nc3ccccc3)nc(Nc3ccccc3)n2)o1` [TCMDC-125802], the “Ratio IC50 HepG2/IC50 P. falciparum” value (in series [1]; in the series with HepG2 cells) was 11 each time. The IC50 in series [1] (setting [5]) is 1.31 µM; in series [1] (setting [10]), 1.31 µM; in series [4] (setting [9]), 0.837 µM. For the same compound, the “% Control luminiscence” value in series [2] was found to be 100%. For the same compound, the IC50 at 48 h in series [3] (setting [7]) worked out at 14.8 µM.

In the case of `CCN(CC)C(=NC(=N)Nc1ccc(Cl)cc1)NCCCCCCCCNC(=NC(=N)Nc1ccc(Cl)cc1)N(CC)CC` [TCMDC-131812], the “Ratio IC50 HepG2/IC50 P. falciparum” value (in series [1]; in the series with HepG2 cells) was more than 24 in each case. In addition, the values for the IC50 in series [1] (setting [5]) and in series [4] (setting [9]) were 1.03 µM and 0.403 µM, respectively. In series [2], the “% Control luminiscence” value is reported as 100%. For the same compound, in series [3] (setting [7]), the IC50 at 48 h was more than 25 µM.

In the case of `COc1ccc(CNC2Cc3ccccc3C2)cc1-c1ccc(OC)c(S(=O)(=O)NCCN2CCCC2)c1` [TCMDC-132251], the “Ratio IC50 HepG2/IC50 P. falciparum” value (in series [1]; with HepG2 cells) was 15 in each case. For the same compound, the figures for the IC50 in series [1] (setting [5]) and in series [4] (setting [9]) were 1.14 µM and 0.773 µM, respectively. In series [2], the “% Control luminiscence” value worked out at 100%. Also, the IC50 at 48 h in series [3] (setting [7]) is 16.6 µM.
